Laboratory results as given in US5214153A, “Actinoplanes transformation process anti-hypertensive compound and method of use thereas” (Merck & Co., Inc., priority 1992, dated 1993).

Biological target: T1, Angiotensin II (A II) receptor (Oryctolagus cuniculus, UniProt P34976)
T1 construct: 125I-Sar1Ile8-angiotensin II displacement
T1 sequence (P34976 1-359): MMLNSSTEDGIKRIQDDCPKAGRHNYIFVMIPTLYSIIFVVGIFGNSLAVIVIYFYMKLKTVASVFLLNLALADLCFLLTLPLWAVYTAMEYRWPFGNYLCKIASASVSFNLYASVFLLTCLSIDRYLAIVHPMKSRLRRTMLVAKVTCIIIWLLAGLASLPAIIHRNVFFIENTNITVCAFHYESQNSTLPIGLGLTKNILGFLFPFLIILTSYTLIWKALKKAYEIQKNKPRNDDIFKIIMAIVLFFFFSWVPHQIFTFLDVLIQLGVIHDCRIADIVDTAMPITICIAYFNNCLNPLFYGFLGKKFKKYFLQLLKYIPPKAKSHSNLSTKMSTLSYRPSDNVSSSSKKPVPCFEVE
Assay: Receptor Binding Assay Using Rabbit Aortae Membrane Preparation ("IC50" assay)
Method: This assay is also referred to herein as the "IC50 " assay.
Receptor Binding Assay Using Rabbit Aortae Membrane Preparation
Three frozen rabbit aortae (obtained from Pel-Freeze Biologicals) were suspended in 5 mM Tris-0.25M Sucrose, pH 7.4 buffer (50 mL) homogenized, and then centrifuged. The mixture was filtered through a cheesecloth and the supernatant was centrifuged for 30 minutes at 20,000 rpm at 4° C. The pellet thus obtained was resuspended in 30 mL of 50 mM Tris-5 mM MgCl2 buffer containing 0.2% Bovine Serum Albumin and 0.2 mg/mL Bacitratin and the suspension was used for 100 assay tubes. Samples tested for screening were done in duplicate. To the membrane preparation (0.25 mL) there was added ^125 I-Sar^1 Ile^8 -angiotensin II [obtained from New England Nuclear] (10 uL; 20,000 cpm) with or without the test sample and the mixture was incubated at 37° C. for 90 minutes. The mixture was then diluted with ice-cold 50 mM Tris-0.9% NaCl, pH 7.4 (4 mL) and filtered through a glass fiber filter (GF/B Whatman 2.4" diameter). The filter was soaked in scintillation cocktail (10 mL) and counted for radioactivity using Packard 2660 Tricarb liquid scintillation counter. […]

- A II antagonist activity by the IC50 assay: exhibits A II antagonist activity
SMILES: CC(O)CCc1nc(Cl)c(CO)n1Cc1ccc(-c2ccccc2-c2nnn[nH]2)cc1 (stereo not shown) [compound (I)]
